Source: ChEMBL document CHEMBL1201862, “PubChem BioAssay data set” (2004)
Calls of active or inactive are those of the source. No stated cut-off is given here; in the data, actives have a measured IC50 and inactives only a lower limit.

Molecular target: Envelope glycoprotein gp160 (Human immunodeficiency virus 1, UniProt Q6QLK5)
Experiment: cell-free HIV fusion peptide-binding blockers – biochemical, uHTS, fluorescence dequenching, […] (AID 1986)

Envelope glycoprotein gp160, sequence (Q6QLK5 whole entry, the tested form may be a part): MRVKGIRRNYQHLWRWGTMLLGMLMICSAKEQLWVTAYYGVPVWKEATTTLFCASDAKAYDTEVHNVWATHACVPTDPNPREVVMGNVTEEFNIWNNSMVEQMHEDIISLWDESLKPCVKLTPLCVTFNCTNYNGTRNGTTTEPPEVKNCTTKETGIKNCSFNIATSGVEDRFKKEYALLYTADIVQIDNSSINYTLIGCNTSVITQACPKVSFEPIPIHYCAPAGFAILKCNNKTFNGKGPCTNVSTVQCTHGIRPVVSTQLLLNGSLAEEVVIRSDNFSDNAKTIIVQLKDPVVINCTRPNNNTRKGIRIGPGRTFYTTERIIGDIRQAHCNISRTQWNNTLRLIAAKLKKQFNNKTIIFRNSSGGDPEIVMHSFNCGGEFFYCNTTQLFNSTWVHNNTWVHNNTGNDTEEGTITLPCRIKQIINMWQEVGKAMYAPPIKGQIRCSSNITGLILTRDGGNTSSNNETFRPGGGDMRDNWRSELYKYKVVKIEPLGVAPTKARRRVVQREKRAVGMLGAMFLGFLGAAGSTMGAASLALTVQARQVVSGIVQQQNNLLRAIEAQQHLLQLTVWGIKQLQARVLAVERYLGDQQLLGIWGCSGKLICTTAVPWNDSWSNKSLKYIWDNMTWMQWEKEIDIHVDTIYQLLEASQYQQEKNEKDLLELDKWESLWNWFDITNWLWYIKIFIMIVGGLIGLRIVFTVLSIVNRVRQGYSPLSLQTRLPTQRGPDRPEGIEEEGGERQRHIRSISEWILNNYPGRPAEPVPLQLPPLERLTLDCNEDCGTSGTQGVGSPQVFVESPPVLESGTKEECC

Row | Structure (SMILES) | IC50
1 | O=C(NCCc1ccccc1)c1ccc2c(=O)[nH]c3c(C(=O)NCC4CCCO4)sc(=S)n3c2c1 (centres undefined) | 27.8 µM (active)
2 | CCOc1cc(/C=C2\C(=O)N(c3cccc(C(=O)O)c3)N=C2C(F)(F)F)ccc1OCC(=O)Nc1ccccc1OC | 3.88 µM (active)
3 | COc1ccc(-c2cc(-c3ccc(Cl)cc3)c(C#N)c(SCC(=O)O)n2)cc1 | 19.4 µM (active)
4 | O=C(O)c1ccc(/C=N/NC(=O)c2ccc(CN3c4cccc5cccc(c45)S3(=O)=O)cc2)cc1 | 19.7 µM (active)
